One assay has as its system A/Paris/908/97 (H3N2). In words: microbe, parasite or virus in culture. The format is cell-based, influenza virus. Particulars: for EC50: Influenza A virus, H3N2, 72 h, read-out: EC50, 50% reduction of the average plaque diameter.
The test system of assay [1] is A/Paris/0497/2007 (H1N1, H274). In words: microbe, parasite or virus in culture. The class given is cell-based, influenza virus. Particulars: for EC50: Influenza A virus, H1N1, 72 h, read-out: EC50, 50% reduction of the average plaque diameter.
The target in assay [2] is influenza A virus N2 sialidase [A/Paris/908/97 (H3N2)] (Influenza A virus, UniProt Q9EA36). The format is biochemical.
Assay [3] deals with influenza A virus N1 sialidase [A/HongKong/156/97 (H5N1)] wild type (Influenza A virus, UniProt Q9W7Y7). In words: biochemical.

Regarding `C=CCC1=C(C(=O)O)O[C@@H]([C@H](O)[C@H](O)CO)[C@H](NC(C)=O)[C@H]1O` [Compound 7, 5-Acetamido-2,6-anhydro-3,5-dideoxy-3-C-(prop-2′-enyl)-D-glycero-D-galacto-non-2-en-onic acid], the 50% effective concentration (EC50) in the assay on A/Paris/908/97 (H3N2) is more than 5000 µM; in assay [1], 1800 µM.
Turning to `CC(=O)NC1C(O)C(CC=Cc2ccc(C)cc2)=C(C(=O)O)OC1C(O)C(O)CO` (stereo not shown) [Compound 9d], in the assay on A/Paris/908/97 (H3N2), the “change in plaque size” value was “little or no visible difference in plaque size” and the half-maximal effective concentration (EC50) is more than 1000 µM. For the same molecule, in assay [1], the “change in plaque size” value is recorded as “significant decrease in plaque size” and the EC50 came out at 80 µM.
As to `CC(=O)N[C@H]1[C@H]([C@H](O)[C@H](O)CO)OC(C(=O)O)=C[C@@H]1O` [Neu5Ac2en, reference compound], the half-maximal effective concentration (EC50) (in the assay on A/Paris/908/97 (H3N2); in assay [1]) was 20 µM each time. Moreover, the Ki in assay [2] stood at 1.24 ± 0.23 µM; in assay [3], 0.97 ± 0.15 µM.

Broadly, the EC50 is the concentration needed to bring the measured effect to its halfway point. Usually Ki stands for a dissociation constant, usually derived from enzyme kinetics or from competition with a known ligand. Low readings indicate higher affinity, high ones lower affinity.

These data come from patent US20120202877A1 (priority 2009, published 2012).
